Read-outs that look alike come from different tables or passages of the source. Marks after values point to notes of the source that are not given here.
Columns and labels:
[1] = in vivo
Experimental: Maximum tolerable doses (MTD) of arglabin and derivatives were determined by daily intraperitoneal administration to rats, guinea pigs or mice and daily intravenous administration to rabbits over a period of five to 20 days.

[2] = LD50, intraperitoneal injection; type: in vivo; details: 2% solution in DMSO
Text: Overall, the compounds in this family have low toxicity and are tolerated at dosages exceeding the therapeutic dosage.

immune system [3] = assay: Immunologic status of patients of the first clinical trial, rozette-formation and phagocytosis; type: in vivo, human
Experimental: Immunologic status of the patients was evaluated using standard methods of rozette-formation and phagocytosis. These indices were studied prior to treatment, during treatment and after treatment. Blood samples were taken from a finger. […] A general change in the ratio of T-helper lymphocytes to T-suppressor lymphocytes was due to an increase of T-suppressor lymphocytes. […] Total number of leukocytes increased up to 9.4×10^9/L and the total number of lymphocytes increased as well. The levels of all types of immunoglobulins increased.
By day 20 of treatment, all indices returned to normal. In some patients, indices returned to normal by day 14. In patients that were analyzed 30 days after treatment, a significant increase in the number of T-lymphocytes and adhesiveness of neutrophils was observed.

[4] = system: Sarcoma-45 resistant to 5-fluorouracil; assay: Inhibition of growth of resistant tumour strains; type: in vivo, rats; details: dose 50 mg/kg
cancer = assay: Case records of selected patients, monochemotherapy; type: in vivo, human
Text: The following are abstracts from the case records of selected patients, who received dimethylaminoarglabin hydrochloride monochemotherapy.

Pliss lymphosarcoma = assay: Inhibition of tumor growth in implanted tumors; type: in vivo, rats; details: dose 30 mg/kg
immune system [5] = assay: Indices of patients' immunity, rozette forming and phagocytosis methods (Table X); type: in vivo, human
Experimental: The indices of immune system were determined using rozette forming and phagocytosis methods. […] Eleven indices of cellular and humoral immunity were measured from each patient in order to evaluate immune status. The following indices were determined on 0.05 ml of peripheral blood: absolute and relative amount of T- and B-lymphocytes, amount of non-differentiated “zero” cells, adhesion and phagocyte activity of neutrophils, hemogram, level of serum immunoglobulins. Indices were determined before treatment, on days 2, 5 and 14 of treatment, and after treatment.
Mean values of immunological indices were evaluated with regression analysis. Functional conditions of the immune system were estimated using integral indices such as a mean intensity (correlation) expressed in relative units.

PC-1 = assay: Inhibition of tumor growth in implanted tumors; type: in vivo, mice and rats; details: dose 30 mg/kg
immune system [6] = assay: Immune system modulation in intact mice; type: in vivo

CC1=CCC23OC2(C)CCC2C(CN(C)C)C(=O)OC2C13.Cl (stereo not drawn) [Dimethylaminoarglabin hydrochloride]
maximum dosage (MTD) ([1]; guinea pig): 45 mg/kg | maximum dosage (MTD) ([1]; mouse): 30 mg/kg | maximum dosage (MTD) ([1]; rabbit): 20 mg/kg | maximum dosage (MTD) ([1]; rat): 50 mg/kg | LD50 ([2]; mice): 190 to 220 mg/kg | LD50 ([2]; rats): 280 to 310 mg/kg | neutrophil adhesiveness (immune system [3]; days 3-5 of treatment, decreased from 42%): 28.5% | undifferentiated lymphocytes (immune system [3]; days 3-5 of treatment, increased from 21.5%): 42.2% | number of T-helper lymphocytes (immune system [3]; days 3-5 of treatment, reduced from 50%): 37.3% | number of T-lymphocytes (immune system [3]; days 3-5 of treatment, reduced from 57%): 40.1% | total number of leukocytes increased up to (immune system [3]; during treatment): up to 9.4 ×10^9/L | average time of retention (rat, in vivo): about 67 hours | brain tissue concentration (rat, in vivo): 23.9 µg/g | concentration in the liver (rat, in vivo): 228.6 µg/g | maximum lung concentration (rat, in vivo): 149.4 µg/g | maximum spleen concentration (rat, in vivo): 159 µg/g | penetration through the blood-brain barrier (rat, in vivo): able to penetrate through the blood-brain barrier | total clearance (rat, in vivo): 0.5 mL/min | maximal level in the blood serum (rat, in vivo, iv, 2 mg/kg): 30 µg/mL | time of maximal level in the blood serum (rat, in vivo, iv, 2 mg/kg): within one hour | volume of distribution (rat, in vivo, iv, 2 mg/kg): large | kidney concentration (rats, 24 hours): 56.6 µg/g | concentration in skeletal muscle (rats, within three hours after administration): 176.4 µg/g | Inhibition of Tumour Strains Growth, % - Resistant Forms - Sarcoma-45 to 5-fluorouracil [4]: 62.3% | condition of patient with brain tumor (cancer; Patient A, case number 543, after the first course): condition was stabilized | infiltration of the right breast decreased (cancer; Patient M, case number 305, breast cancer, 5 courses): 50% | outcome of liver cancer (cancer; patient, case number N2225, embryonal carcinoma of the liver, 120 mg IV daily): complete recovery | Inhibition of Tumour Growth, % - Pliss lymphosarcoma (Pliss lymphosarcoma): 79.6% | level of non-differentiated "zero" cells (immune system [5]; 2nd-5th day of treatment): increased | percentage of T-lymphocytes and T-helper lymphocytes (immune system [5]; 2nd-5th day of treatment): reduced considerably | immunoglobulins A, M and G (immune system [5]; after the treatment): increased amount | Inhibition of Tumour Growth, % - PC-1 (PC-1): 84.3* % | hemagglutination titer (immune system [6]; 100 mg/kg IP): slight decrease | hemagglutination test index (immune system [6]; repeated IP 30 mg/kg, day 10): decreased | hemagglutination titers (immune system [6]; repeated IP 10 and 20 mg/kg, days 5 and 10): increased | delayed-type hypersensitivity reaction (immune system [6]; repeated IP, day 5): No effect | delayed-type hypersensitivity reaction (immune system [6]; repeated IP, day 10): increased by day 10 | delayed-type hypersensitivity reaction (immune system [6]; single 50 mg/kg IP): did not alter | hemagglutination titer (immune system [6]; single 50 mg/kg IP): did not alter

Reference: patent US6770673B1, “Therapeutic uses of arglabin in combination with other chemotherapy agents” (priority 1997, dated 2004)
